The values that follow come from patent US11950594B2, “Methods and compositions for inhibiting formation of biofilms” (INSTITUTE OF MICROBIOLOGY, CHINESE ACADEMY OF SCIENCES, priority 2019, dated 2024).

For data set [1], the system named is Psl polysaccharide production. Description: Psl immunoblot analysis. As to conditions: C9 5 mM, Jensen media, 37° C., 24 hours. The data set is classed as cell-based, Pseudomonas aeruginosa. The protocol: Pseudomonas aeruginosa PAO1 was inoculated in Jensen media at 37° C. for 24 hours with shaking and treated with the coumarin-chalcone compound C9 (5 mM) or DMSO (5 mM), respectively. OD600 values of the overnight cultured bacterial solutions were measured, and a bacterial solution with an OD (optical density) of 10 was collected. The bacterial solution with the OD of 10 was a bacterial solution whose OD600 was 2 and the collected volume was 5 mL. The bacterial solution was centrifuged at 13000 r/min for 5 min and the corresponding supernatant was discarded. The obtained precipitate was dissolved in 100 μL of 0.5 M EDTA. Then the EDTA solution was boiled at 100° C. for 5 min and centrifuged, and the precipitate was discarded. The obtained supernatant was treated with proteinase K (final concentration, 0.5 mg/mL) for 1 h at 60° C., followed by inactivation of proteinase K for 30 min at 80° C. to obtain a polysaccharide extract. A volume of 3 μL of polysaccharide extract was spotted onto a nitrocellulose membrane and dried. After washing with TBST for 3 times, a blocking was done with 10% skimmed milk at room temperature for 1 h. The anti-Psl antibody (i.e., a primary antibody) (1:25,000 dilution) was added and then solution was treated at 25° C. for 1 h. […] Western blot data was quantitatively analyzed using Image Lab™ 5.1 software.
For orientation: In western blotting, separated proteins are transferred to a membrane and probed.

In another data set the test system is Pseudomonas aeruginosa. Description: Antibiotic susceptibility, filter paper method (inhibition area). As to conditions: C9 5 mM in culture medium, versus control group. The data set is classed as cell-based. The protocol:
In the experiment, the coumarin-chalcone compound C9 (5 mM) was added to a culture medium, and an inhibition area of the corresponding antibiotics was measured by a conventional filter paper method.

The next data set is described as follows: pKa by HCl/KOH titration. The data set is classed as physicochemical. As to conditions: titration with HCl (25 mM) and KOH (25 mM). The protocol: UV-Vis spectral analysis was used to study the stability of the coumarin-chalcone compound C9 at a pH range of 3.4 to 8.4. […] After reaching pH=2, KOH (25 mM) was added slowly until the pH reached 12. In this way, a graph of a relationship between the pH and the volume of KOH added was plotted to find an equivalent point and thus the pKa.

The subject of data set [2] is Staphylococcus aureus biofilm. The data set is described as follows: 96-well plate crystal violet biofilm detection. The data set is classed as cell-based. As to conditions: FIG. 11. How it is done: 1% inoculation amount of the bacterial solution cultured overnight was inoculated into 100 μL Jensen liquid medium. Different equal amounts of bacteria solution with C1 to C12, respectively, or without any additional substance were cultured in a 96-well polyvinyl chloride (PVC) plate (costar) overnight at 30° C. without agitation.
The bacterial biomass adsorbed on the 96-well PVC plate was detected by a crystal violet method, and steps were described as below. (1) The non-attached bacteria were removed using a pipettor, then the wells were gently rinsed with normal saline for 3 times. (2) A volume of 120 μL 0.1% crystal violet solution was added to stain the firmly attached bacterial cells in each well, which then staying static at room temperature for 30 min. (3) The PVC plate was taken out, the crystal violet solution was removed with a pipettor, and the non-attached crystal violet solution was washed with normal saline. (4) The crystal violet attached onto the PVC plate was dissolved with 200 μL of 30% acetic acid solution. The OD value of the acetic acid solution in each well was measured at 560 nm with a spectrophotometer.
FIG. 11 is a schematic diagram illustrating an inhibiting effect of a coumarin-chalcone compound C9 on Staphylococcus aureus and Escherichia coli biofilms. […]

The subject of data set [3] is PAO1 strains. The data set is described as follows: Bacterial motility assay, swimming plate. The data set is classed as cell-based, Pseudomonas aeruginosa. As to conditions: 37° C., 24 hours. The protocol:
PAO1 strains were inoculated into a LBNS agar plate and were cultured overnight at 37° C. Single colonies were respectively inoculated on the surface of swimming plates with and without the coumarin-chalcone compound C9, and cultured at 37° C. for 24 hours. Then, a diameter of a translucent area formed by bacterial swimming on each swimming plate was measured.

Data set [4] has as its system PAO1 strains. The data set is described as follows: Bacterial motility assay, twitching plate. Type of data set: cell-based, Pseudomonas aeruginosa. As to conditions: 37° C., 24 hours. How it is done:
PAO1 strains were inoculated into a LBNS agar plate and were cultured overnight at 37° C. Single colonies were respectively stab-inoculated to the bottom of twitching plates with and without the coumarin-chalcone compound C9, and cultured at 37° C. for 24 hours. The growth of bacteria at an interface between the agar and the plastic plate was a twitching movement. When 1% TTC was added to the medium, the area that bacteria have visited may turn red, and then the diameter of the red area on each twitching plate was measured.

In data set [5] the test system is Pseudomonas aeruginosa PAO1. Description: Growth curve analysis (OD600). Type of data set: cell-based. As to conditions: 5 mM C9, LB, 37° C., 24 h. How it is done:
Pseudomonas aeruginosa PAO1 (optical density OD600≈1.5) was cultured in LB liquid medium overnight, and 1% inoculation amount of the bacterial solution was inoculated into a fresh LB liquid medium. Two equal amounts of bacterial solution with and without 5 mM coumarin-chalcone compound C9 were cultured in a shaking incubator with 200 rpm at 37° C. for 24 h. OD value of the bacterial solution at 600 nm was measured every hour with a spectrophotometer to trace bacterial growth.

The term pKa denotes the negative logarithm of the acid dissociation constant. The low end stands for a group that gives up its proton readily, the high end for a group that holds its proton tightly. Regarding `COc1cccc(/C=C/C(=O)c2cc3ccccc3oc2=O)c1` [Compound C9], the “reduction of Psl production” value in data set [1] worked out at 60%. Further, in the data set with Pseudomonas aeruginosa, the “susceptibility of Pseudomonas aeruginosa to fluoroquinolone antibiotics (CIP)” value is reported as “significantly higher”. In addition, the pKa in “pKa by HCl/KOH titration” was determined as 5.66. Further, the “reduction of Staphylococcus aureus biofilm” value in data set [2] was determined as 30%. Besides, the flagellate-mediated swimming ability result with PAO1 strains [3] is recorded as “no effect”. The “twitching motility mediated by type IV pili” value with PAO1 strains [4] was “no effect”. The “effect on growth of Pseudomonas aeruginosa PAO1 (OD600)” value in data set [5] is recorded as “no significant effect”.
